ChEMBL document CHEMBL4699434, “Fenretinide binding to the lysosomal protein saposin D alters ceramide solubilization and hydrolysis” (RSC Med Chem, 2020)
pKd: −log10 of the molar value. Active and inactive are the calls of the source. No cut-off for these calls is given here.

What was measured:
[1] = molecular target: T1, Prosaposin (Homo sapiens) (UniProt P07602); assay: Binding affinity to human saposin D (1 to 81 residues) expressed in Escherichia coli assessed as decrease in BODIPY-TR labeled ceramide solubilization in sodium phosphate buffer measured after 30 mins by fluorescence assay
T1 sequence (whole entry): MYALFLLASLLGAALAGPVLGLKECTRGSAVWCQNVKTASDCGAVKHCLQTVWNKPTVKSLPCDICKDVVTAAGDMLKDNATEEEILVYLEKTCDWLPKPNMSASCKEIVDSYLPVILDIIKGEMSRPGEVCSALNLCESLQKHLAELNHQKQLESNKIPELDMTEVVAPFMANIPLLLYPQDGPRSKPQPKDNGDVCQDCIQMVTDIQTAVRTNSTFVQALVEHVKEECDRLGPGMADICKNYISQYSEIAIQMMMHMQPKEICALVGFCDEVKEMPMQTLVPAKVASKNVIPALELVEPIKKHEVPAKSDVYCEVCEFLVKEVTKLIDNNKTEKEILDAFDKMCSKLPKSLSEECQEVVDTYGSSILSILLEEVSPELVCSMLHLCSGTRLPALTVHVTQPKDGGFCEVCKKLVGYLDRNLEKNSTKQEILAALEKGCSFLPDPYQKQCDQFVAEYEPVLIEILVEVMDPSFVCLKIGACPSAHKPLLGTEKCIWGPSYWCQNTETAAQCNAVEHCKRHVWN

[2] = molecular target: T1, Prosaposin (Homo sapiens); assay: Binding affinity to human saposin D (1 to 81 residues) expressed in Escherichia coli complexed with CerPO4 assessed as decrease in ceramide hydrolysis using ceramide as counter-substrate preincubated the protein-ceramide complex for 30 mins measured after 24 hrs in presence of acid ceramidase by HPLC analysis
[3] = molecular target: T2, Prosaposin (Homo sapiens, UniProt P07602); assay: Binding affinity to human saposin D (1 to 81 residues) expressed in Escherichia coli at 25 degree C by electronic absorption spectroscopy
T2 sequence (P07602 whole entry): T1 sequence (whole entry)

[4] = molecular target: T1, Prosaposin (Homo sapiens); assay: Binding affinity to human saposin D (1 to 81 residues) expressed in Escherichia coli assessed as inhibition of ceramide hydrolysis preincubated for 30 mins followed by ceramide addition measured after 72 hrs by HPLC analysis
[5] = molecular target: T1, Prosaposin (Homo sapiens); assay: Binding affinity to human saposin D (1 to 81 residues) expressed in Escherichia coli assessed as association constant at equilibrium at 25 degree C by electronic absorption spectroscopy
[6] = molecular target: T1, Prosaposin (Homo sapiens); assay: Binding affinity to human saposin D (1 to 81 residues) expressed in Escherichia coli assessed as association constant at equilibrium at 25 degree C by fluorescence quenching spectroscopy
[7] = molecular target: T2, Prosaposin; assay: Binding affinity to human saposin D (1 to 81 residues) expressed in Escherichia coli at 25 degree C by fluorescence quenching spectroscopy
[8] = molecular target: T3, Acid ceramidase (Homo sapiens) (UniProt Q13510); assay: Inhibition of acid ceramidase (unknown origin) assessed as inhibition of ceramide hydrolysis preincubated for 30 mins followed by ceramide addition measured after 72 hrs by HPLC analysis
T3 sequence (whole entry): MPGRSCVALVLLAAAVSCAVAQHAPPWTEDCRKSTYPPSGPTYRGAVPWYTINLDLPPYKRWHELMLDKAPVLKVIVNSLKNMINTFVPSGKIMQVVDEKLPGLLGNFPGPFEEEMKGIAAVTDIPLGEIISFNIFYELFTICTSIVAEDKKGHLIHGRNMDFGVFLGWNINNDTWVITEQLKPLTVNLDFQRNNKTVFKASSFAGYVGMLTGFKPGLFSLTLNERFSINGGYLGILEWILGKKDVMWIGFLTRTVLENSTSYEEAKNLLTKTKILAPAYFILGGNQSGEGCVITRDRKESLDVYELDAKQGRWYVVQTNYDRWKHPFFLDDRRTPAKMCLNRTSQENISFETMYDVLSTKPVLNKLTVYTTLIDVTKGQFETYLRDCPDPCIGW

[9] = molecular target: T1, Prosaposin (Homo sapiens); assay: Binding affinity to human saposin D (1 to 81 residues) expressed in Escherichia coli complexed with CerOH assessed as decrease in ceramide hydrolysis using ceramide as counter-substrate measured after 24 hrs in presence of acid ceramidase by fluorescence quenching spectroscopy

Activity [1]: inactive
Activity [2]: Active
pKd [3]: 5.16
inhibition [4]: Active
Ka [5]: 1.45 10^5/M
Ka [6]: 1.45 10^5/M
pKd [7]: 5.16
inhibition [8]: Active
Activity [9]: Active
Structure (SMILES): CC1=C(/C=C/C(C)=C/C=C/C(C)=C/C(=O)Nc2ccc(O)cc2)C(C)(C)CCC1 [FENRETINIDE]
